Among the data in BindingDB's records for PubMed 33422907 (Universita Paul Sabatier, 2021) are IC50 values, retold here.

The term IC50 denotes the concentration at which inhibition is half-maximal.

In this test the target is Signal transducer and activator of transcription 3 (Homo sapiens, UniProt P40763). As to the kind of experiment: Inhibition of STAT3 in human Hep3B cells assessed as inhibition of IL-6 stimulated STAT3 expression by luciferase reporter assay. Background: Reporter assays use an easily measured gene product as a stand-in for the process of interest.
Signal transducer and activator of transcription 3, sequence (P40763 whole entry): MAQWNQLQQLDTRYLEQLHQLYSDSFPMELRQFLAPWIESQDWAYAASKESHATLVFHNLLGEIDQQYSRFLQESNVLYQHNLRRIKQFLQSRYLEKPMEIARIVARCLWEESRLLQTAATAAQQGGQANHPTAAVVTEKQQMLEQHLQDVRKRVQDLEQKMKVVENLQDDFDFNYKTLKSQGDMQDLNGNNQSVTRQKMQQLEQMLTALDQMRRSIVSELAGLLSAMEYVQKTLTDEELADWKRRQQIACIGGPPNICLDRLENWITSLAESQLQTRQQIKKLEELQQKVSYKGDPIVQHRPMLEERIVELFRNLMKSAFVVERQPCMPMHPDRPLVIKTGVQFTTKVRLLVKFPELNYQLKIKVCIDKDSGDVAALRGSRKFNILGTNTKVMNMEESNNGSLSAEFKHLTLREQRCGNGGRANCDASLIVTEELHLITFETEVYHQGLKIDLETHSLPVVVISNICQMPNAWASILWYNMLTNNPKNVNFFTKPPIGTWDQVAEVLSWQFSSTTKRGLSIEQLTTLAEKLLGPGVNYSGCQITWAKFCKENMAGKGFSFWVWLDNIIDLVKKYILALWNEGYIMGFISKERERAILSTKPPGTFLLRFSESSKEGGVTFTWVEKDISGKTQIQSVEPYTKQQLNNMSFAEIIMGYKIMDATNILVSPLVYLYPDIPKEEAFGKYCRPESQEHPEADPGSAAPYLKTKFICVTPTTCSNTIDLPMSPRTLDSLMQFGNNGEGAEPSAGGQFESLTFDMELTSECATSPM
On to `COc1ccc(/C=C/[C@@H](C[C@@H](O)CCc2ccc(OC)c(OC)c2)OC)cc1OC`, for which the IC50 amounted to 12.9 µM.

For the molecule `COc1ccc(/C=C/[C@H](O)C[C@@H](O)CCc2ccc(OC)c(OC)c2)cc1OC`, the IC50 is 19.9 µM.

Take `COc1ccc(/C=C/C(C[C@H](O)CCc2ccc(OC)c(OC)c2)OC)cc1OC` (stereo partly drawn): the IC50 came to 11.1 µM.

Turning to `O=[N+]([O-])c1ccc2c(c1)S(=O)(=O)C=C2`, the IC50 is 0.67 µM.

Take `COc1ccc(CC[C@@H](O)C[C@H](O)CCc2ccc(OC)c(OC)c2)cc1OC`: the IC50 amounted to 50 µM.

On to `COc1ccc(CC[C@H](O)C[C@@H](O)/C=C/c2cc(OC)c(OC)c(OC)c2)cc1OC`, for which the IC50 was 37.6 µM.

Turning to `COc1ccc(/C=C/C=C/C(=O)/C=C/c2ccc(O)cc2)cc1`, the IC50 was 4.1 µM.

As for `COc1cc(/C=C/C(=O)CC(=O)CC(O)c2ccc(O)c(OC)c2)ccc1O` (stereo not drawn), the IC50 worked out at 21.5 µM.
